Test results as given in patent US20230065562A1, “DUAL CONTROLS FOR THERAPEUTIC CELL ACTIVATION OR ELIMINATION” (Bellicum Pharmaceuticals, Inc., priority 2015, published 2023).

Experiments:
[1] = test system: iC9 T cells (pBP0220, GFP-Fluc); experiment: In vivo apoptotic activation in NSG mice, iC9 T cells (IVIS imaging, spleen FACS); set-up: species or system mouse
Description: PBMCs from donor 676 were activated and co-transduced with one of the off-switches and GFP-Fluc retroviruses. Eleven days after transduction, cells were analyzed for transduction efficiency with GFP and anti-CD3/anti-CD19 antibodies (FIG. 109A). […] The CD19^+ MFI for the different T cell populations were: iC9=15.07, iRC9=14.38, and iRmC9=13.39. The cells were collected, counted, washed, and resuspended at 1×10^6 cells in 100 μl PBS for each tail vein mouse injection (Table 10) (time=−18 hr). […] IVIS imaging was performed at −14, 0, 5, 24 and 29 hours. Mice were sacrificed and spleens were collected for FACS analysis with hCD3, hCD19 and mCD45 antibodies. […] The higher percentage of remaining iRmC9 T cells observed may be due to an artifact of normalizing the no drug group.
PBMCs from donor 676 were activated and co-transduced with retroviruses encoding the pBP0220, 1310, 1327 vectors and the GFP-Fluc plasmid. (FIG. 109A) Eleven days post transduction, the cells were analyzed for CD19 and GFP transduction efficiency prior to injection into mice. (FIGS. 109B & C) NSG mice were injected i.v. with 107 T cells co-transduced with GFP-Fluc per mouse and suicide drugs were injected i.p. the next day. Bioluminescence of cells was assessed at −14, 0, 5, 24, and 29 hours post-drug administration. […]

[2] = test system: 293 cells; experiment: SEAP assay: iMC (tandem FKBP) scaffold plus FRBL2-Caspase-9; assay type: cell-based; conditions: tandem FKBPs (iMC) present
Description: FIGS. 16A and 16B are line graphs showing that tandem FKBP scaffold mediates FRBL2. Caspase activation in the presence of rapalogs. FIG. 16A. HEK-293 cells were transfected with 1 μg each of SRα-SEAP reporter plasmid, Δmyr.iMC.2A-anti-CD19.CAR.CD3ζ (pBP0608), and FRBL2. Caspase-9 (pBP0467). […] After ON incubation, cell supernatants were assayed for SEAP activity, as previously described. FIG. 16B. Similar to the experiment described in (FIG. 16A), except that cells were transfected with a membrane-localized (myristoylated) iMC.2A-CD19.CAR.CD3ζ (pBP0609), instead of non-myristoylated Δmyr.iMC.2A-CD19.CAR.CD3ζ (pBP0608).
In a second test for rapalog-mediated scaffold-based activation of Caspase-9, 293 cells were transiently transfected with SRα-SEAP reporter plasmid, plus myristoylated or non-myristoylated inducible iMC co-expressed with 1st generation anti-CD19 CAR, plus FRBL2-fused Caspase-9 (plasmid pBP0467) (FIG. 16).

[3] = test system: HLA-B7+Bob-1+ U266 multiple myeloma; experiment: iMC-Bob-1 TCR cytotoxicity and IL-2 secretion against U266; assay type: cell-based
Excerpt: FIG. 120: (A) iMC-Bob-1 TCR-mediated cytotoxicity against HLA-B7^+Bob-1^+ U266 multiple myeloma is rimiducid-independent. […] Go156 TCR is a negative control TCR.

[4] = test system: iCasp9M-transduced EBV-CTLs; experiment: CID-induced apoptosis / loss of GFP+ cells in iCasp9M-transduced EBV-CTLs; assay type: cell-based, human
Description: CID (AP20187; ARIAD Pharmaceuticals) at indicated concentrations was added to transfected 293T cells or transduced CTLs. Adherent and nonadherent cells were harvested and washed with annexin binding buffer (BD Pharmingen, San Jose, Calif.). Cells were stained with annexin-V and 7-amino-actinomycin D (7-AAD) for 15 minutes according to the manufacturer's instructions (BD Pharmingen). Within 1 hour after staining, cells were analyzed by flow cytometry using CellQuest software (Becton Dickinson).
Inducible iCasp9M proficiency in CTLs was tested by monitoring loss of GFP-expressing cells after administration of CID; 91.3% (range, 89.5%-92.6% in 5 different donors) of GFP^+ cells were eliminated after a single 10-nM dose of CID. […] In all experiments, CTLs that survived CID treatment had low transgene expression with a 70% (range, 55%-82%) reduction in mean fluorescence intensity of GFP after CID. No further elimination of the surviving GFP^+ T cells could be obtained by an antigenic stimulation followed by a second 10-nM dose of CID. Therefore, the non-responding CTLs most likely expressed insufficient iCasp9M for functional activation by CID. To investigate the correlation between low levels of expression and CTL non-response to CID, CTLs were sorted for low, intermediate, and high expression of the linked marker gene GFP and mixed 1:1 with nontransduced CTLs from the same donor to allow for an accurate quantitation of the number of transduced T cells responding to CID-induced apoptosis.
The number of transduced T cells eliminated increased with the level of GFP transgene expression (see FIGS. 4A, 4B and 4C). To determine the correlation between transgene expression and function of iCasp9M, iCasp9M IRES.GFP-transduced EBV-CTL were selected for low (mean 21), intermediate (mean 80) and high (mean 189) GFP expression. Selected T-cells were incubated overnight with 10 nM CID and subsequently stained with annexin V and 7-AAD. Indicated are the percentages of annexin V+/7-AAD− and annexin V+/7-AAD+ T−. Selected T-cells were mixed 1:1 with non-transduced T-cells and incubated with 10 nM CID following antigenic stimulation. Indicated is the percentage of residual GFP-positive T-cells on day 7.
For GFPhigh-selected cells, 10 nM CID led to deletion of 99.1% (range, 98.7%-99.4%) of transduced cells. On the day of antigen stimulation, F-Casp9M.I.GFP-transduced CTLs were either untreated or treated with 10 nM CID. Seven days later, the response to CID was measured by flow cytometry for GFP. The percentage of transduced T cells was adjusted to 50% to allow for an accurate measurement of residual GFP^+ cells after CID treatment. The responses to CID in unselected (top row of and GFPhigh-selected CTLs (bottom row of was compared. The percentage of residual GFP^+ cells is indicated.
After overnight incubation with 10 nM CID, F-Casp9M.I.GFPhigh-transduced T cells had apoptotic characteristics such as cell shrinkage and fragmentation by microscopic evaluation. […] A representative example of 3 separate experiments is shown.

[5] = GFPhigh-selected, overnight 10 nM CID, mean
[6] = representative example of 3 experiments

| Structure (SMILES) | iC9 T cells remained in splenocytes compared to no drug- or rapamycin-treated groups ([1]; 5 mg/kg rimiducid i.p., spleen FACS, FIG. 109D) [%] | removal of iC9 T cells / bioluminescence signal (IVIS imaging) ([1]; NSG mice, 5 mg/kg rimiducid or 10 mg/kg rapamycin i.p., FIGS. 109B & C) | activation of FRBL2-Caspase-9 [2] | iMC-Bob-1 TCR-mediated cytotoxicity against U266 ([3]; FIG. 120A) | IL-2 secretion, Bob-1 TCR with rimiducid-driven iMC costimulation, U266 ([3]; FIG. 120B) | concentration sufficient to obtain the maximal deletion effect ([4]; F-Casp9M.I.GFPhigh, day 7) [nM] | deletion of transduced cells ([4]; GFPhigh-selected cells, 10 nM CID) [%] | apoptotic (annexin-V+/7-AAD−) phenotype [4, 5] [%] | necrotic (annexinV+/7-AAD+) phenotype [4, 5] [%] | reduction in mean fluorescence intensity of GFP in surviving CTLs ([4]; after CID) [%] | apoptotic phenotype (annexin V+, 7-AAD−) [4, 6] [%] | necrotic phenotype (annexin V+, 7-AAD+) [4, 6] [%] | GFP+ cells eliminated ([4]; single 10-nM dose of CID, unselected CTLs, 5 donors) [%] |
| --- | --- | --- | --- | --- | --- | --- | --- | --- | --- | --- | --- | --- | --- |
| CC[C@H](C(=O)N1CCCC[C@H]1C(=O)O[C@H](CCc1ccc(OC)c(OC)c1)c1cccc(OCC(=O)NCCNC(=O)COc2cccc([C@@H](CCc3ccc(OC)c(OC)c3)OC(=O)[C@@H]3CCCCN3C(=O)[C@@H](CC)c3cc(OC)c(OC)c(OC)c3)c2)c1)c1cc(OC)c(OC)c(OC)c1 [rimiducid] | ~20 | induced significant removal | not activated | rimiducid-independent | maximal IL-2 secretion | – | – | – | – | – | – | – | – |
| CC[C@H](C(=O)N1CCCC[C@H]1C(=O)O[C@H](CCc1ccc(OC)c(OC)c1)c1cccc(OCC(=O)NCC(CNC(=O)COc2cccc([C@@H](CCc3ccc(OC)c(OC)c3)OC(=O)[C@@H]3CCCCN3C(=O)[C@@H](CC)c3cc(OC)c(OC)c(OC)c3)c2)CN(C)C)c1)c1cc(OC)c(OC)c(OC)c1 [AP20187] | – | – | – | – | – | 1 | 99.1 | 64 | 30 | 70 | 64 | 32 | 91.3 |
